As a reminder, the melting point is the temperature of the solid-liquid transition. As for `Nc1nc2c(OCC(F)(F)F)cccc2s1`, the melting point lay within 170 to 172 °C.

`O=C(O)c1cc(S(=O)(=O)N2CCOCC2)ccc1N1CCCCC1` showed a melting point of 179 to 181 °C.

Consider `O=c1[nH][nH]c2cccc(Cl)c12`, for which the melting point lay within 247 to 249 °C.

As to `O=C(O)Cn1nccn1`, the melting point was 129 to 131 °C.

`O=C1NC(=O)N(c2ccccc2)C1=O` registered a melting point of 213 to 215 °C.

`O=C(O)c1csc(-c2ccc3c(c2)OCO3)n1` showed a melting point of 222 to 224 °C.

In turn, `O=C(O)CN1CCCC1=O` came in with a melting point of 125 to 135 °C.

On to `CCOc1cc(N2CCC(O)CC2)ccc1[N+](=O)[O-]`, for which the melting point is 109 to 111 °C.

`O=S(=O)(Cl)c1cccc(-c2cccs2)c1` gave a melting point of 57 to 59 °C.

`COc1ccc(NS(=O)(=O)c2ccc(N)c(N)c2)cc1`: the melting point fell in the range of 163 to 165 °C.

`O=C(O)C1CC(=O)N(c2cn[nH]c2)C1` (stereo unspecified) showed a melting point of 259 to 261 °C.

`Brc1cn2ccnc2c(Br)n1` had a melting point of 152 to 154 °C.

In the case of `O=C(O)C1CC1c1ccc(Cl)c(Cl)c1` (stereo unspecified), the melting point lay in the range of 141 to 143 °C.

Compound `N#Cc1ccccc1S(=O)(=O)N1CCC(C(=O)O)CC1` came in with a melting point of 150 to 152 °C.

Consider `CN(C)S(=O)(=O)c1ccc(NCCO)c(C(=O)O)c1`, for which the melting point lay within 176 to 178 °C.

`CN1CCC(C(=O)O)c2ccccc21` (stereo unspecified): the melting point was 99 to 101 °C.

The compound `CC1CNc2ccccc2CN1C(=O)OC(C)(C)C` (stereo unspecified) registered a melting point of 158 to 160 °C.

Compound `O=C(O)C(S)c1ccccc1` (stereo unspecified) displayed a melting point of 58 to 60 °C.

`O=C(O)CC1CCCCO1` (stereo unspecified) had a melting point of 49 to 51 °C.

`Cc1ccoc1C(=O)CC#N` showed a melting point of 93 to 95 °C.

Take `OCc1nc2cc(C(F)(F)F)ccc2s1`: the melting point lay within 96 to 98 °C.

Compound `O=[N+]([O-])c1ccn(CCCBr)n1` yielded a melting point of 35 to 37 °C.

`O=C(O)CCc1cnn(-c2ccccc2)c1`: the melting point fell in the range of 80 to 89 °C.

`Nc1nc(CN2CCN(c3nccs3)CC2)cs1`: the melting point is 169 to 171 °C.

The compound `O=C(O)CSc1ccccc1Cl` returned a melting point of 115 to 117 °C.

As to `COC(=O)c1ccc(Br)c(S(=O)(=O)Cl)c1`, the melting point is 102 to 104 °C.

`Sc1nnc(-c2ccc(Cl)cc2)o1` came in with a melting point of 88 to 90 °C.

The compound `CCN1CCN(CC(=O)O)C(=O)C1=O` yielded a melting point of 200 to 202 °C.

The compound `Fc1ccccc1CNc1ccc(Cl)nn1` displayed a melting point of 169 to 171 °C.

In turn, `CCOC(=O)c1c(Cl)c2ncc(S(=O)(=O)Cl)cc2n1C` returned a melting point of 141 to 143 °C.

As for `Nc1cccc(-c2cn(Cc3ccccc3)nn2)c1`, the melting point lay in the range of 139 to 141 °C.

As to `O=c1c2sc(-c3ccccc3)cc2nc(S)n1Cc1ccccc1`, the melting point lay in the range of 313 to 315 °C.

In the case of `Cc1ccc([N+](=O)[O-])cc1NC(=O)CCCl`, the melting point was in the range of 155 to 157 °C.

`Nc1nc2ccc(F)cn2n1`: the melting point fell in the range of 166 to 168 °C.

In turn, `CC(=O)Nc1cnc(NC(C)=O)s1` had a melting point of 245 to 247 °C.

As to `CN(c1ccc(F)cc1)S(=O)(=O)c1ccc(Cl)c(C(=O)O)c1`, the melting point was in the range of 174 to 176 °C.

`O=C(O)CSc1nc2cc(Cl)ccc2n1Cc1ccccc1` came in with a melting point of 155 to 157 °C.

`Cc1ccc(C(F)(F)C(=O)O)cc1` had a melting point of 39 to 41 °C.

The compound `O=C(O)CNC(=O)/C=C/c1ccccc1` yielded a melting point of 191 to 193 °C.

`CCOc1ccc(N)cc1CN1CCCC1`: the melting point fell in the range of 58 to 60 °C.

`O=C(O)CCNC(=O)Cc1ccccc1` displayed a melting point of 109 to 111 °C.

In turn, `N#CCC(=O)Nc1ccccn1` returned a melting point of 160 to 162 °C.

As for `O=C(O)c1cc(-c2ccc(C(F)(F)F)cc2)no1`, the melting point lay within 329 to 331 °C.

Compound `Cc1cn2c(CO)c(C)nc2s1` displayed a melting point of 149 to 151 °C.

`O=C(NCC(F)(F)F)c1ccc(O)cc1` returned a melting point of 113 to 115 °C.

`Cc1cc(C(=O)CCl)c(Cl)cc1F` returned a melting point of 36 to 38 °C.

In turn, `NC(Cc1cccnc1)=NO` came in with a melting point of 149 to 151 °C.

Compound `CC(C)C(=O)Nc1cc2ccccc2cc1C(=O)O` yielded a melting point of 203 to 205 °C.

`Cc1ccc([N+](=O)[O-])cc1C(C)Cl` (stereo unspecified) displayed a melting point of 44 to 46 °C.

`COc1cc(NC(=O)OC(C)(C)C)c(Cl)cc1C(=O)O` had a melting point of 155 to 157 °C.

Consider `Nc1nnc(SCc2cccs2)s1`, for which the melting point lay within 141 to 143 °C.

`Cc1ccc(-n2nc(C)cc2N)cc1` showed a melting point of 118 to 120 °C.

In turn, `CCc1ccc2c(c1)C(=O)C(=O)N2C` had a melting point of 96 to 98 °C.

On to `O=S(=O)(Cl)c1cc2c(cc1Cl)OCCCO2`, for which the melting point fell in the range of 92 to 94 °C.

As for `O=S(=O)(Cl)c1cc(Br)ccc1F`, the melting point is 68 to 70 °C.

In turn, `CCOc1ccccc1-n1nnnc1S` gave a melting point of 53 to 55 °C.

In turn, `Cc1ccc(S(=O)(=O)N(C)c2ccc(O)cc2)cc1` showed a melting point of 137 to 139 °C.

Consider `Nc1ncc(-c2ccccc2F)s1`, for which the melting point lay in the range of 149 to 151 °C.

Consider `O=C(O)c1ccc(N2CCCS2(=O)=O)cc1Cl`, for which the melting point lay within 226 to 228 °C.

For `O=c1[nH]c2ccccc2c(O)c1[N+](=O)[O-]`, the melting point fell in the range of 209 to 211 °C.

`CC(C)(C)OC(=O)NCCC(=O)NC(N)=O` had a melting point of 162 to 164 °C.

In turn, `COc1cc2nc(C)sc2cc1N` returned a melting point of 89 to 91 °C.

The compound `COc1ccc(O)c(C(=O)c2ccccc2)c1` showed a melting point of 81 to 83 °C.

Turning to `Cc1nc(N)ccc1C=CC(=O)O`, the melting point was 253 to 255 °C.

For the compound `CCOC(=O)c1c(Cl)nc2ccccc2c1C`, the melting point is 109 to 111 °C.

As for `CC(Sc1ccc(Cl)cc1)C(=O)O` (stereo unspecified), the melting point lay in the range of 106 to 108 °C.

`CC(C)CCNC(=O)NC(=O)CCl` gave a melting point of 93 to 95 °C.

As to `O=C(O)CC(Cc1ccccc1)c1ccccc1` (stereo unspecified), the melting point lay within 90 to 92 °C.

`N#Cc1cc(Cl)ccc1CS(=O)(=O)Cl` had a melting point of 106 to 108 °C.

As for `CC(C)(C)OC(=O)Nc1cc2ccccc2cc1C(=O)O`, the melting point was 179 to 181 °C.

Consider `O=C(c1ccc(F)cc1)c1ccc(C(F)(F)F)cc1`, for which the melting point was 100 to 102 °C.

In turn, `Cc1c(C(=O)O)sc2nc3n(c(=O)c12)CCCCC3` showed a melting point of 253 to 255 °C.

`O=C(O)CC(O)(c1nc2ccccc2o1)C(F)(F)F` (stereo unspecified) had a melting point of 194 to 196 °C.

Turning to `CNC(=O)c1cccc(N)c1`, the melting point fell in the range of 122 to 124 °C.

In turn, `Cc1cc(C(=O)CCl)c(C)n1-c1cccc(S(=O)(=O)N2CCOCC2)c1` returned a melting point of 171 to 173 °C.

Consider `O=c1cc(C(F)(F)F)[nH]c(=O)[nH]1`, for which the melting point is 210 to 212 °C.

As for `NC(=O)c1ccc(CO)c(F)c1`, the melting point lay within 103 to 105 °C.

In turn, `Cc1ccc(-c2nnc(N)[nH]2)c(C)c1` gave a melting point of 211 to 213 °C.

`CS(=O)(=O)c1cc([N+](=O)[O-])c(O)c([N+](=O)[O-])c1` displayed a melting point of 221 to 223 °C.

Compound `Nc1c(Br)c(=O)[nH]c(=O)n1Cc1ccccc1` had a melting point of 235 to 237 °C.

Take `CNc1ccccc1S(C)(=O)=O`: the melting point lay within 96 to 98 °C.

As for `O=C1CC=NN1c1ccc(F)cc1`, the melting point lay in the range of 121 to 123 °C.

Compound `COc1ccc(-c2csc(N)n2)cc1F` showed a melting point of 185 to 187 °C.

`Cc1ccc(C)n1-c1nc(CC(=O)O)cs1` returned a melting point of 100 to 102 °C.

The compound `O=C(O)c1ccc2c(c1)C(=O)NS2(=O)=O` gave a melting point of 279 to 281 °C.

Compound `Cc1ccc(Oc2ccc(N)cc2)cc1` gave a melting point of 118 to 122 °C.

For the compound `CC(C)c1cc(C(=O)O)nn1-c1ccccn1`, the melting point lay within 146 to 148 °C.

In the case of `C#CCOc1ccc(C=O)cc1`, the melting point fell in the range of 75 to 77 °C.

In the case of `CCC(CC)NC(=O)C(=O)NN`, the melting point lay in the range of 177 to 179 °C.

On to `CCn1c(C)nnc1S`, for which the melting point lay within 129 to 131 °C.

In the case of `O=C1CCCc2cc[nH]c21`, the melting point was 94 to 96 °C.

In turn, `COc1ccc2c(c1)NC(=O)C2O` (stereo unspecified) returned a melting point of 189 to 191 °C.

Regarding `O=C(O)c1ccc2c(c1)C(=O)N(Cc1ccccc1)C2=O`, the melting point lay in the range of 198 to 200 °C.

In turn, `CCn1ncc2c(C(=O)O)cc(-c3ccccc3)nc21` yielded a melting point of 236 to 238 °C.

Consider `COCc1nc(C(=O)O)cs1`, for which the melting point fell in the range of 106 to 108 °C.

In turn, `N#Cc1ccc(O)c(N)c1` had a melting point of 149 to 151 °C.

The compound `CC(C)NC(=O)Nc1ccc(C#N)cc1` had a melting point of 193 to 195 °C.

In turn, `COc1ccc2ocnc2c1` displayed a melting point of 75 to 77 °C.

`O=Cc1ccc(-c2cccnc2)o1` showed a melting point of 104 to 106 °C.

As to `NC(=NO)C1CCCc2ccccc21` (stereo unspecified), the melting point was in the range of 133 to 135 °C.

`CC(C)n1ccc(C(=O)O)n1` registered a melting point of 77 to 79 °C.

`NS(=O)(=O)Cc1ccc([N+](=O)[O-])cc1Br` gave a melting point of 200 to 202 °C.

The compound `CC(C)(O)c1ccc(O)cc1` came in with a melting point of 104 to 106 °C.

In turn, `COc1ccc(CCC(=O)O)cc1F` yielded a melting point of 111 to 113 °C.

`CS(=O)(=O)NCC#N`: the melting point lay within 69 to 71 °C.

Compound `O=C(O)CNC1CCS(=O)(=O)C1` (stereo unspecified) registered a melting point of 241 to 243 °C.

For the compound `CCOc1cc(C(=O)O)ccc1OCc1cccnc1`, the melting point was 185 to 187 °C.

With `N#Cc1ccc2c(c1)CCCC2=O`, the melting point was in the range of 132 to 134 °C.

`CCOC(=O)c1sc2nc(CSc3ccccc3)nc(Cl)c2c1C` showed a melting point of 52 to 54 °C.

With `CCn1cc(N)c(=O)c(Br)c1`, the melting point fell in the range of 116 to 118 °C.

As for `Clc1ccnc2cc(Br)ccc12`, the melting point lay within 99 to 101 °C.

As to `CCc1ccc2cc(C(=O)O)[nH]c2c1`, the melting point is 178 to 180 °C.

In turn, `O=C1NC(=O)C2(Cc3ccccc3C2)N1` yielded a melting point of 264 to 266 °C.

The compound `O=S(=O)(Cl)c1cncc(F)c1` gave a melting point of 35 to 37 °C.

In turn, `CN(CC(N)=S)C(=O)c1ccccc1` returned a melting point of 149 to 151 °C.

In turn, `O=C(O)C=Cc1cc[nH]c1` returned a melting point of 183 to 185 °C.

In the case of `O=C1CNc2ccncc2N1`, the melting point lay in the range of 259 to 261 °C.

Turning to `COc1ccc(C(C)=O)cc1CSc1nnnn1C`, the melting point was 64 to 66 °C.

`Nc1cc(C(=O)O)ccc1I` gave a melting point of 209 to 211 °C.

Compound `COc1ccccc1-n1cc(S(N)(=O)=O)cn1` yielded a melting point of 143 to 145 °C.

Regarding `Cc1ccc(S(=O)(=O)c2ccc(NN)cc2)cc1`, the melting point lay in the range of 173 to 175 °C.

The record behind these values is a melting point compilation (Tetko et al.).
